Here are results for seven compounds from paper PMC10222323, “Novel Biotinylated Cu(II)-Phenanthroline Complexes: 2D and 3D Cytotoxic Activity and Mechanistic Insight” (Molecules, 2023).

Like-named read-outs stand apart in the source and are kept apart here.

For data set [1], the system named is DNA. On the set-up: method as in earlier work. The settings on record: reported literature values; ref 26 (Molphy et al.); cited from earlier work.
The subject of data set [2] is HCT-15 (colorectal with low sensitivity for cisplatin) cancer cells. In words: MTT cytotoxicity test, 72 h, HCT-15. Format: cell-based, human. How it is done: (§1) The in vitro anticancer potential of the newly developed complexes and of the ligands has been tested on six different cancer cell lines including PSN-1 (pancreatic), HCT-15 (colorectal with low sensitivity for cisplatin), 2008 (ovarian), A431 (cervical), MDA-MB-231 (breast), and U1285 (lung) cancer cells. For comparison purposes, cisplatin efficacy was assessed under the same experimental conditions.
(§2) Tested compounds were dissolved in DMSO and added to the cell-growth medium to a final solvent concentration of 0.5%, which is well reported to not have cytotoxic effects on cell viability. Cisplatin (Sigma Chemical Co., St. Louis, MO, USA) was dissolved in a physiologic solution (0.9% sodium chloride).
(§3) Human colon (HCT-15), pancreatic (PSN-1), and breast (MDA-MB-231) carcinoma-cell lines were obtained from the American Type Culture Collection (ATCC, Rockville, MD). Human cervical carcinoma (A431) cells were kindly provided by Prof. F. Zunino (Division of Experimental Oncology B, Istituto Nazionale dei Tumori, Milan). Human ovarian carcinoma (2008) cells and their cisplatin-resistant counterpart (C13*) were kindly provided by Prof. G. Marverti (Dipartimento di Scienze Biomediche, Università di Modena University, Italy). Cell lines were cultured in RPMI-1640 or DMEM medium (Euroclone) added with 10% fetal calf serum (Euroclone, Milan, Italy), antibiotics (50 units per mL penicillin, and 50 μg mL^−1 streptomycin), and 2 mM L-glutamine.
(§4) The growth inhibitory effect toward the tumour cell lines was evaluated by the MTT test as previously described.
In general terms: Tetrazolium assays rely on reduction of a dye to a coloured formazan, in cell work by metabolically active cells.

In data set [3] the test system is six different cancer cell lines. In words: MTT cytotoxicity, average over the cancer cell line panel. The data set is classed as cell-based, human. The conditions noted are these: for cytotoxic activity of ligands (in words): compared with the complexes. How it is done:
as §1
Due to note, all the complexes were very effective in the MDA-MB-231 cell line, which overexpress the SMVT (sodium-dependent multivitamin transporter) receptor, which is well known to be involved in the intracellular translocation of biotin [24].
as §4

The test system of data set [4] is MDA-MB-231 (breast) cancer cells. In words: MTT cytotoxicity test, 72 h, MDA-MB-231. Format: cell-based, human. The procedure: as §1, §2, §3, §4
The test system of data set [5] is 2008 (ovarian) cancer cells. In words: MTT cytotoxicity test, 72 h, 2008. Format: cell-based, human. How it is done: as §1
(§5) Table 2 reported the IC50 values of the complexes against two types of ovarian cancer cells, one sensitive (2008) and one resistant to cisplatin (C13*). […] The resistance factor (R.F., the ratio among IC50 values obtained in resistant C13*cells and those calculated in the sensitive 2008 ones) calculated for all tested complexes resulted to be ≤2 (R.F. for cisplatin 11.1), strongly confirming the ability of the complexes to bypass cisplatin resistance.
as §2, §3, §4

The subject of data set [6] is PSN-1 (pancreatic) cancer cells. In words: MTT cytotoxicity test, 72 h, PSN-1. Format: cell-based, human. How it is done: as §1, §2, §3, §4
Data set [7] deals with U1285 (lung) cancer cells. Briefly: MTT cytotoxicity test, 72 h, U1285. The data set is classed as cell-based, human. The settings on record: mean ± S.D., read-out: IC50 U-1285. How it is done:
as §1, §2, §4

The test system of data set [8] is A431 (cervical) cancer cells. In words: MTT cytotoxicity test, 72 h, A431. The data set is classed as cell-based, human. The procedure: as §1, §2, §3, §4
Data set [9] concerns C13* ovarian cancer cells (cisplatin-resistant). In words: MTT cytotoxicity test, 72 h, cisplatin-resistant C13*. The data set is classed as cell-based, human. The conditions noted are these: for R.F. (resistance factor): RF = IC50 resistant (C13*)/IC50 parental cells (2008); for IC50: cisplatin-resistant cells, 72 h, MTT test. How it is done: as §5, §2, §3, §4
Data set [10] concerns DNA. Briefly: Ethidium bromide displacement assay. The conditions noted are these: EtBr displacement. The data set is classed as binding. How it is done:
A number of research studies were performed on the elucidation of the mechanism of action of copper complexes in the past three decades. Despite several different molecular targets having been proposed for copper(II) complexes, DNA still represents one of the most substantiated when considering diamine ligands. On this basis, we thought it of interest to evaluate the ability of tested complexes to interact with DNA, both at molecular and cellular levels. An ethidium bromide (EB) displacement assay was used to understand if the complexes interact with the DNA at a molecular level. […] These values are very much in line with what was previously seen by us and also very close to the reported literature values of 2.60 × 10^7 M(bp^−1) and 3.04 × 10^7 M(bp^−1) for the bis complexes of [Cu(phen)2]^2+ and [Cu(DPQ)2]^2+ reported by Molphy et al.. […] It is largely possible that the presence of the 1,10-phenanthroline scaffold on compounds 3 and 4 is contributing to the increased displacement of the EtBr (probably by intercalation) and leading to a more noticeable decrease in the fluorescence.
EtBr displacement assays were performed in 10 mM phosphate buffer solution (pH 7.4) as described by Boger et al. The binding values were calculated using the % relative decrease of fluorescence at 50% and the equation below. (1) EEBEtBr/compound50%FI

In a further data set the test system is noncancerous CHO cells. In words: Cytotoxicity against noncancerous CHO cells. The data set is classed as cell-based. The settings on record: for S.I. (selectivity index): average IC50 toward normal cells divided by the average IC50 for the malignant cells; for IC50: noncancerous cells.
Text: In order to preliminarily assess the possible toxic effect on noncancerous cells, we also evaluated the cytotoxic potential of the newly developed Cu(II) complexes against noncancerous CHO cells (Table 3). For all tested complexes, calculated IC50 values were higher than those obtained (on average) against tumour cells, thus indicating for this class of metal complexes a slightly preferential cytotoxicity against cancer cells, as attested by the calculated selectivity index values (SI = the quotient of the average IC50 toward normal cells divided by the average IC50 for the malignant cells).
as §4

The subject of the next data set is MDA-MB-231 cells. The settings on record: 24 h, 2 and 3 μM. How it is done:
The ability to enter cancer cells is a very important factor to determine the biological activity of metal-based compounds. Consequently, with the aim of correlating the antiproliferative activity elicited by all the newly developed complexes and their accumulation profiles into cancer cells, the Cu content was evaluated in the SMVT overexpressing MDA-MB-231 cells. Uptake profiles were determined by treating cancer cells for 24 h with two concentrations (2 and 3 μM) of tested complexes.
MDA-MB-231 cells (2.5 × 10^6) were seeded in 75 cm^2 flasks in a growth medium (20 mL). Following 24 h, cells were treated for 24 h with tested complexes and samples processed as previously described.
Figure 2 Cellular uptake of complexes 1–4 in drug-treated MDA-MB-231 human breast cancer cells. Cells were incubated for 24 h with […] of tested complexes. The amount of cellular Cu was estimated by GF-AAS. Error bars are S.D.

Data set [11] deals with human pancreatic PSN-1 cancer-cell spheroids. In words: 3D spheroid cytotoxicity, APH assay, 72 h. The data set is classed as cell-based. The settings on record: 3D spheroids, 72 h, APH test. The procedure:
The cancer spheroids were treated with tested complexes for 72 h, and the cell viability was estimated by means of a modified acid phosphatase (APH) assay.
Spheroid cultures were performed by seeding 2.5 × 10^3 PSN-1 cancer cells/well in spheroid-suitable tissue culture untreated 96-well plates (Greiner Bio-one, Kremsmünster, Austria) in RPMI-1640 cell culture medium without phenol red (Sigma Chemical Co., St. Louis, MO, USA) containing 10% fetal calf serum and supplemented with 20% methyl cellulose stock solution.
An established APH-modified assay was used to detect the cytotoxicity profile in 3D spheroids, as previously described. IC50 values were calculated using a 4-PL model.

Where [12] appears, read: Homo sapiens, Table 1, mean ± S.D.
[13] abbreviates: Table 2, cisplatin-sensitive parental cells.

With `c1cc2c3nccnc3c3ccc[n+]4c3c2[n+](c1)[Cu-2]41[n+]2cccc3c4nccnc4c4ccc[n+]1c4c32` [[Cu(DPQ)2]^2+], the “binding constant (literature)” value in the data set on DNA [1] is 3.04 × 10^7 M(bp^−1).
With `[Cu+2].c1cnc2c(c1)ccc1cccnc12.c1cnc2c(c1)ccc1cccnc12` [[Cu(phen)2]^2+, copper bis-phenanthroline [Cu(phen)2]^2+], the “binding constant (literature)” value in the data set on DNA [1] is reported as 2.60 × 10^7 M(bp^−1).
For orientation: IC50 means the concentration that inhibits the measured activity by half. For `O=C(CCCC[C@@H]1SC[C@@H]2NC(=O)N[C@@H]21)NN=C1c2cccnc2-c2ncccc21` [A, Biotin-Dafone], the IC50 in data set [2] (Homo sapiens, HCT-15, mean ± S.D.) was > 50 µM; in [4] (Homo sapiens, MDA-MB-231, mean ± S.D.), > 50 µM; in data set [5] (setting [12]), > 50 µM; in data set [6] (Homo sapiens, PSN1, mean ± S.D.), > 50 µM; in data set [7] (Homo sapiens) it was > 50 µM; in data set [8] (Homo sapiens, A-431, mean ± S.D.), > 50 µM. Moreover, the “cytotoxic activity of ligands (in words)” value in [3] is “did not show activity comparable to the complexes”.
For the compound `O=C(CCCC[C@@H]1SC[C@@H]2NC(=O)N[C@@H]21)NN=C1c2ccc[n+]3c2-c2c1ccc[n+]2[Cu-2]3([Cl])[Cl]` [Complex 1, [Cu(dafone-biotin)Cl2]], the IC50 stood at 0.4 ± 0.1 µM in data set [2] (mean ± S.D.); 2 ± 0.8 µM in [9]; 3.4 µM in data set [3] (2D assays, average over the cancer cell lines of Table 1); 2.1 ± 0.4 µM in data set [4] (mean ± S.D.); 13.1 ± 0.9 µM in the data set on noncancerous CHO cells; 4.5 ± 0.6 µM in data set [5] (Table 1, mean ± S.D.). The IC50 in [5] (setting [13]) turned out to be 4.5 ± 0.6 µM; in data set [6] (mean ± S.D.), 0.6 ± 0.2 µM; in [7] it was 5.9 ± 0.5 µM; in [8] (mean ± S.D.) it was 7.2 ± 0.6 µM. Moreover, the “R.F. (resistance factor)” value in data set [9] amounted to 0.4. For the same compound, the “fluorescence quenching (in words)” value with DNA [10] is “very small quenching”. In addition, the “S.I. (selectivity index)” value in the data set on noncancerous CHO cells came out at 3.9.
Consider “[Cu(phen)(dafone-biotin)](NO3)2 [Complex 3]”, for which the “Cu intracellular content (uptake)” value in the data set with MDA-MB-231 cells is on record as “most internalised into cancer cells”. The IC50 in data set [2] (mean ± S.D.) turned out to be 1.8 ± 0.2 µM; in [9], 2.5 ± 0.2 µM; in data set [4] (mean ± S.D.), 1.4 ± 0.4 µM; with noncancerous CHO cells it was 2.1 ± 0.8 µM; in data set [5] (Table 1, mean ± S.D.) it was 3.3 ± 0.1 µM; in data set [5] (setting [13]), 3.3 ± 0.1 µM. In addition, the figures for the IC50 in data set [6] (mean ± S.D.), in data set [7] and in [8] (mean ± S.D.) were 0.7 ± 0.2 µM, 3 ± 0.3 µM and 0.9 ± 0.2 µM, respectively. Also, the “R.F. (resistance factor)” value in [9] is on record as 0.7. The “fluorescence quenching (in words)” value in the data set with DNA [10] is reported as “highest quenching values”. Besides, in the data set with DNA [10], the relative fluorescence decrease result is “greater than 50%”. The binding constant in the data set on DNA [10] (10 mM phosphate buffer pH 7.4, from 50% fluorescence decrease) is 2.53 × 10^7 M(bp^−1). For the same compound, the “S.I. (selectivity index)” value in the data set on noncancerous CHO cells was 1.1.
On to `O=C(CCCC[C@@H]1SC[C@@H]2NC(=O)N[C@@H]21)N/N=C1\C(=O)c2cccnc2-c2ncccc21` [B, Biotin-Phen], for which, in data set [3], the “cytotoxic activity of ligands (in words)” value is given as “did not show activity comparable to the complexes”. For the same compound, the IC50 in data set [5] (setting [12]) came out at 21.5 ± 0.72 µM; in [7] (Homo sapiens), 28.1 ± 2.77 µM.
In the case of `N.N.[Cl][Pt][Cl]` [Cisplatin, cisplatin, reference compound], the IC50 was determined as 13.9 ± 1.7 µM in [2] (mean ± S.D.); 24.1 ± 3 µM in [9]; 30.5 ± 2.6 µM in data set [4] (mean ± S.D.); 24.1 ± 3 µM in the data set on noncancerous CHO cells; 2.2 ± 1.4 µM in data set [5] (Table 1, mean ± S.D.); 2.2 ± 1.4 µM in [5] (setting [13]). The IC50 amounted to 12.1 ± 2.9 µM in data set [6] (mean ± S.D.), 2.1 ± 0.9 µM in [7], 2.1 ± 0.9 µM in [8] (mean ± S.D.) and 52.6 ± 3.8 µM in data set [11]. For the same compound, the “R.F. (resistance factor)” value in [9] amounted to 11.1.
